{"source": "paper PMC6158189", "about": "“A pharmacological probe identifies cystathionine β-synthase as a new negative regulator for ferroptosis” (Cell Death & Disease, 2018)", "target": "hCSE (Homo sapiens, UniProt P32929)", "sequence (P32929 whole entry)": "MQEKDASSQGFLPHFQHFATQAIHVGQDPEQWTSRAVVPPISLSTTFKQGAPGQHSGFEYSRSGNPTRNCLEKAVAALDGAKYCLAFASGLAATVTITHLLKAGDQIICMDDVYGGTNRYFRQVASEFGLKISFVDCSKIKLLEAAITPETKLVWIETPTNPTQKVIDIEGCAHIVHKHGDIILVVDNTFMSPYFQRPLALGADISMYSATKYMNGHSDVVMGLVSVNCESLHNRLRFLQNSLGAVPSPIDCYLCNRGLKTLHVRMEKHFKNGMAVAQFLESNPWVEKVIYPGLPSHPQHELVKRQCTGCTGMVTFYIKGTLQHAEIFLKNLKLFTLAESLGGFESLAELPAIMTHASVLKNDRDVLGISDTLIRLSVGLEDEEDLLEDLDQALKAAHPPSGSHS", "experiment": "H2S in HEK293T cells transiently expressing hCSE (AzMC probe)", "type": "cell-based", "settings": "10 μM, 8 h", "experimental": "HEK293T cells were transiently transfected with empty vector (EV, i and ii), hCBS-FL (iii and iv) or hCSE (v and vi) plasmids, followed by incubation with DMSO (i–iii and v) or 10 μM CH004 (iv and vi) for 8 h before staining with 50 μM AzMC, a H2S-specific probe (“Materials and Methods” section). For larger fluorescent and bright-field images, please see Supplementary Figure 4. The expression levels of hCBS or hCSE in HEK293T cells after transient transfections were determined by western blotting using an anti-CBS antibody (3E1, 1:2000; Abnova) or anti-CSE antibody (1:500, GeneTex). The densities of protein bands for hCBS or hCSE in the blots were quantified with the ImageJ software (National Institutes of Health, Bethesda, MD, USA) and expressed as ratios of respective control (EV group). […] The fluorescent images of the H2S (blue) were accordingly quantified (“Materials and Methods” section) with ImageJ. […] A representative fluorescence image from three independent experiments is shown. […]\nH2S levels in living cells were detected using a H2S-specific fluorescent probe according to a protocol described previously[31],[55]. […] After incubation with 50 μM AzMC at 37 °C for 30 min, the cells were washed 4 times with PBS, and the fluorescent images were recorded with excitation by 405 nm laser by using a A1Si (Nikon) confocal microscope. […]", "data": [{"smiles": "Cn1nc(Cc2ccccc2)nc2c(=O)n(C)c(=O)nc1-2", "note": "[CH004, 3-benzyl-1,6-dimethylpyrimido[5,4-e][1,2,4]triazine-5,7(1H,6H)-dione]", "values": [{"measurement": "effect on production of H2S", "value": "did not interfere"}]}]}
